Here are results for 18 compounds from patent US20080161288A1, “COMPOUNDS” (Pfizer Inc., priority 2006, published 2008).

What is called EC50 is the midpoint of the concentration-response curve.

Each structure is given as a SMILES string.

In test [1] the target is T1, porcine beta-2 adrenoceptor (Sus scrofa, UniProt Q28997).
T1 construct: expressed in transfected cells; host or cells: CHO cells
The test is described as follows: cAMP assay in CHO cells transfected with the porcine beta-2 adrenoceptor. The following applies: cAMP (DiscoveRx Hit Hunter cAMP II) in CHO cells transfected with porcine beta-2 adrenoceptor, 30 minutes with compound, 0.5 mM IBMX. The format is cell-based. As for the experimental part:
(§1) CHO cells transfected with the bovine or porcine beta-2 adrenceptors were maintained in culture in DMEM/HAMS F12+10% FBS+2 mM glutamine+500 μg/ml geneticin (for the porcine receptor the medium was supplement with 1.5 mM HEPES) at 37° C. with a 5% CO2 atmosphere.
(§2) Cells were plated into 96 well viewplates in medium and incubated overnight at 37° C. with a 5% CO2 atmosphere. The cells were pre-incubated with 0.5 mM IBMX in PBS for 30 minutes prior to incubation with increasing concentrations of experimental compound (5×10^−12 to 10^−5 M) for 30 minutes at 37° C. with a 5% CO2 atmosphere. At the end of the incubation time the compound was removed and the cells assayed for cAMP using the DiscoveRx Hit Hunter cAMP II™ assay kit.
(§3) Duplicate samples were run for each experimental compound and the data generated was analysed using EC50 analysis software in Graphpad Prism.
(In general: cAMP levels reflect the balance of adenylyl cyclase and phosphodiesterase activity.)

The target of test [2] is T2, bovine beta-2 adrenoceptor (Bos taurus, UniProt Q28044).
T2 construct: expressed in transfected cells; host or cells: CHO cells
T2 sequence (Q28044 whole entry): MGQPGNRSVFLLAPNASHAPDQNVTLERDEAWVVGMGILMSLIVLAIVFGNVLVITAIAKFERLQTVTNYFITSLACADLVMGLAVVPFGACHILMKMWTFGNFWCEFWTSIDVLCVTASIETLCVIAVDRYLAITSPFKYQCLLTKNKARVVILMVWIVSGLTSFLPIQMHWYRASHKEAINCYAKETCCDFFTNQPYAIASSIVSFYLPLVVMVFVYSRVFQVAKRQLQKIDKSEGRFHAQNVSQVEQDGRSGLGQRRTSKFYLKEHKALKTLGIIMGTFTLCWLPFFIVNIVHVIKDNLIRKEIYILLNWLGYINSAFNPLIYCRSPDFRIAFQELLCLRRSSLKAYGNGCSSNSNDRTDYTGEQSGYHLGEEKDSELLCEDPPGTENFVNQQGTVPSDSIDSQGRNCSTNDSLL
Put plainly: cAMP assay in CHO cells transfected with the bovine beta-2 adrenoceptor. The format is cell-based. Conditions: cAMP (DiscoveRx Hit Hunter cAMP II) in CHO cells transfected with bovine beta-2 adrenoceptor, 30 minutes with compound, 0.5 mM IBMX. As for the experimental part: as §1, §2, §3

T1 sequence (Q28997 whole entry): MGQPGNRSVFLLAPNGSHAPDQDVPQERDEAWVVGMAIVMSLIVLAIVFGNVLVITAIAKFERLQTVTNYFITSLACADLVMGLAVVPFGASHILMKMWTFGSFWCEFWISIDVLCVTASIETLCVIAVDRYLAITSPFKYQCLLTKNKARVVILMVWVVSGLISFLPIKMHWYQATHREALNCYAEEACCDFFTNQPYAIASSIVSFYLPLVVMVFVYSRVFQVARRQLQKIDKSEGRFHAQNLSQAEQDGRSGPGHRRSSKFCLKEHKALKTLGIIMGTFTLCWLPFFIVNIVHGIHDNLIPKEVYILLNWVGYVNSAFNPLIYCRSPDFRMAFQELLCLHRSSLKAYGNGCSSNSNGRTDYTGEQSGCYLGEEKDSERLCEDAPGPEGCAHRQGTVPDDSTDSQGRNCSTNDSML

For `CC(CCc1c(F)cccc1Cl)N[C@@H]1CCn2c(=O)[nH]c3cccc(c32)[C@H]1O` (mixture of isomers) [Example 32, 6-{[3-(2-Chloro-6-fluorophenyl)-1-methylpropyl]amino}-7-hydroxy-4,5,6,7-tetrahydroimidazo[4,5,1-jk][1]benzazepin-2(1H)-one], the EC50 turned out to be 2.9 nM in test [1] and 8.6 nM in test [2].
The corresponding values for `CC(/C=C/c1ccccc1NS(C)(=O)=O)N[C@@H]1CCn2c(=O)[nH]c3cccc(c32)[C@H]1O` (mixture of isomers) [Example 42, N-{2-[3-{[7-Hydroxy-2-oxo-1,2,4,5,6,7-hexahydroimidazo[4,5,1-jk][1]benzazepin-6-yl]amino}but-1-en-1-yl]phenyl}methanesulfonamide] are 104 nM and 258 nM.
The corresponding values for `CC(CCc1cccc(O)c1)N[C@@H]1CCn2c(=O)[nH]c3cccc(c32)[C@H]1O` (mixture of isomers) [Example 43, 7-Hydroxy-6-{[3-(3-hydroxyphenyl)-1-methylpropyl]amino}-4,5,6,7-tetrahydroimidazo[4,5,1-jk][1]benzazepin-2(1H)-one] are 5.6 nM and 7.2 nM.
In the case of `CC(CCc1cccc(CO)c1)N[C@@H]1CCn2c(=O)[nH]c3cccc(c32)[C@H]1O` (mixture of isomers) [Example 44, 7-Hydroxy-6-({3-[3-(hydroxymethyl)phenyl]-1-methylpropyl}amino)-4,5,6,7-tetrahydroimidazo[4,5,1-jk][1]benzazepin-2(1H)-one], the EC50 in test [1] is 61.7 nM; in test [2] it was 75.7 nM.
Taken in the same sequence, the figures for `CC(CCc1cc(Br)cc(Br)c1O)N[C@@H]1CCn2c(=O)[nH]c3cccc(c32)[C@H]1O` (mixture of isomers) [Example 47, 6-{[3-(3,5-Dibromo-2-hydroxyphenyl)-1-methylpropyl]amino}-7-hydroxy-4,5,6,7-tetrahydroimidazo[4,5,1-jk][1]benzazepin-2(1H)-one] were above 300 nM and above 200 nM.
Taken in the same sequence, the figures for `CC(CCc1ccc(O)cc1)N[C@@H]1CCn2c(=O)[nH]c3cccc(c32)[C@H]1O` (single isomer, unassigned) [Example 2a, 7-Hydroxy-6-{[3-(4-hydroxyphenyl)-1-methylpropyl]amino}-4,5,6,7-tetrahydroimidazo[4,5,1-jk][1]benzazepin-2(1H)-on] were 6.1 nM and 13.4 nM.
The corresponding values for `CC(CCc1ccc(O)cc1)N[C@@H]1CCn2c(=O)[nH]c3cccc(c32)[C@H]1O` (single isomer, unassigned) [Example 2b, 7-Hydroxy-6-{[3-(4-hydroxyphenyl)-1-methylpropyl]amino}-4,5,6,7-tetrahydroimidazo[4,5,1-jk][1]benzazepin-2(1H)-on] are 121 nM and 298 nM.
For `CC(CCc1ccc(O)cc1)N[C@@H]1CCn2c(=O)[nH]c3cccc(c32)[C@H]1O` (single isomer, unassigned) [Example 2c, 7-Hydroxy-6-{[3-(4-hydroxyphenyl)-1-methylpropyl]amino}-4,5,6,7-tetrahydroimidazo[4,5,1-jk][1]benzazepin-2(1H)-on], the EC50 in test [1] was 2.9 nM; in test [2], 13.1 nM.
The corresponding values for `CC(CCc1ccc(O)cc1)N[C@@H]1CCn2c(=O)[nH]c3cccc(c32)[C@H]1O` (single isomer, unassigned) [Example 2d, 7-Hydroxy-6-{[3-(4-hydroxyphenyl)-1-methylpropyl]amino}-4,5,6,7-tetrahydroimidazo[4,5,1-jk][1]benzazepin-2(1H)-on] are 1.9 nM and 3.6 nM.
The corresponding values for `CC(CCc1ccc2c(c1)CCO2)N[C@@H]1CCn2c(=O)[nH]c3cccc(c32)[C@H]1O` (single isomer, unassigned) [Example 3a, 6-{[3-(2,3-Dihydro-1-benzofuran-5-yl)-1-methylpropyl]amino}-7-hydroxy-4,5,6,7-tetrahydroimidazo[4,5,1-jk][1]benzazepin-2(1H)-one] are 8.1 nM and 34.3 nM.
The corresponding values for `CC(CCc1ccc2c(c1)CCO2)N[C@@H]1CCn2c(=O)[nH]c3cccc(c32)[C@H]1O` (single isomer, unassigned) [Example 3b, 6-{[3-(2,3-Dihydro-1-benzofuran-5-yl)-1-methylpropyl]amino}-7-hydroxy-4,5,6,7-tetrahydroimidazo[4,5,1-jk][1]benzazepin-2(1H)-one] are 108 nM and 456 nM.
For `CC(CCc1ccc2c(c1)CCO2)N[C@@H]1CCn2c(=O)[nH]c3cccc(c32)[C@H]1O` (single isomer, unassigned) [Example 3c, 6-{[3-(2,3-Dihydro-1-benzofuran-5-yl)-1-methylpropyl]amino}-7-hydroxy-4,5,6,7-tetrahydroimidazo[4,5,1-jk][1]benzazepin-2(1H)-one], the EC50 in test [1] came out at 5.6 nM; in test [2], 27.1 nM.
Taken in the same sequence, the figures for `CC(CCc1cccc(Cl)c1O)N[C@@H]1CCn2c(=O)[nH]c3cccc(c32)[C@H]1O` (single isomer, unassigned) [Example 5a, 6-{[3-(3-Chloro-2-hydroxyphenyl)-1-methylpropyl]amino}-7-hydroxy-4,5,6,7-tetrahydroimidazo[4,5,1-jk][1]benzazepin-2(1H)-one] were 473 nM and 307 nM.
Taken in the same sequence, the figures for `CC(CCc1cccc(Cl)c1O)N[C@@H]1CCn2c(=O)[nH]c3cccc(c32)[C@H]1O` (single isomer, unassigned) [Example 5b, 6-{[3-(3-Chloro-2-hydroxyphenyl)-1-methylpropyl]amino}-7-hydroxy-4,5,6,7-tetrahydroimidazo[4,5,1-jk][1]benzazepin-2(1H)-one] were 2.9 nM and 1.6 nM.
The corresponding values for `C[C@H](CCc1cccc(Cl)c1O)N[C@@H]1CCn2c(=O)[nH]c3cccc(c32)[C@H]1O` (single isomer, unassigned) [Example 5c] are 6 nM and 2.7 nM.
For the compound `CC(CCc1ccccc1O)N[C@@H]1CCn2c(=O)[nH]c3cccc(c32)[C@H]1O` (single isomer, unassigned) [Example 6d, 7-Hydroxy-6-{[3-(2-hydroxyphenyl)-1-methylpropyl]amino}-4,5,6,7-tetrahydroimidazo[4,5,1-jk][1]benzazepin-2(1H)-one], the EC50 in test [1] is 410 nM; in test [2] it was 315 nM.
Regarding `CC(CCc1cc(F)ccc1O)N[C@@H]1CCn2c(=O)[nH]c3cccc(c32)[C@H]1O` (single isomer, unassigned) [Example 7a, 6-{[3-(5-Fluoro-2-hydroxyphenyl)-1-methylpropyl]amino}-7-hydroxy-4,5,6,7-tetrahydroimidazo[4,5,1-jk][1]benzazepin-2(1H)-one], the figures for the EC50 in test [1] and in test [2] were 104 nM and 77.7 nM, respectively.
For the compound `CC(CCc1cc(F)ccc1O)N[C@@H]1CCn2c(=O)[nH]c3cccc(c32)[C@H]1O` (single isomer, unassigned) [Example 7b, 6-{[3-(5-Fluoro-2-hydroxyphenyl)-1-methylpropyl]amino}-7-hydroxy-4,5,6,7-tetrahydroimidazo[4,5,1-jk][1]benzazepin-2(1H)-one], the EC50 amounted to 0.5 nM in test [1] and 0.3 nM in test [2].
